Measurements: ChEMBL document CHEMBL1145368, “Directed molecular screening for RecA ATPase inhibitors” (Bioorg Med Chem Lett, 2007)
pIC50: −log10 of the molar value. The source made the active and inactive calls. The calls are words filed in the database; no cut-off is given here.

Assays:
[1] = (§1) Inhibition of Escherichia coli RecA by ADP-linked fluorescent ATPase assay
[2] = system: Escherichia coli; assay: Inhibition of RecA-mediated DNA strand exchange reaction assessed as abrogation of nicked circular dsDNA formation at 100 uM
[3] = system: Escherichia coli; assay: as §1

## Cc1ccc(C(=O)Nc2ccc(S(=O)(=O)O)c3cc(S(=O)(=O)O)cc(S(=O)(=O)O)c23)cc1NC(=O)c1cccc(NC(=O)Nc2cccc(C(=O)Nc3cc(C(=O)Nc4ccc(S(=O)(=O)O)c5cc(S(=O)(=O)O)cc(S(=O)(=O)O)c45)ccc3C)c2)c1 [SURAMIN]
[1]
  pIC50: 5.70
[2]
  Activity: Active

## Nc1c(/N=N/c2ccc(-c3ccc(/N=N/c4cc(S(=O)(=O)O)c5ccccc5c4N)cc3)cc2)cc(S(=O)(=O)O)c2ccccc12
[3]
  Activity: Active

## O=S(=O)(O)c1cccc2c(-c3ccc(Nc4ccccc4)c4c(S(=O)(=O)O)cccc34)ccc(Nc3ccccc3)c12
[3]
  Activity: Active

## COc1cc(/C=C/C(=O)CC(=O)/C=C/c2ccc(O)c(OC)c2)ccc1O
[3]
  Activity: inactive
